Measured values as given in publication doi:10.1101/2023.04.22.537907v1 (biorxiv, 2023).

Biological target: PcVHA-a (vacuolar H+-ATPase subunit a; Pc106526)
Test: microscale thermophoresis with lysate of mCherry-fusion transformants
Type: binding, Phytophthora capsici
Details: 25 °C; 20% MST power; total protein lysate; mCherry-only control

- Kd: 17.9 µM
Structure (SMILES): O=C(NCc1ncc(C(F)(F)F)cc1Cl)c1c(Cl)cccc1Cl [fluopicolide]
